Experimental findings from the NIST ThermoML archive (doi:10.1021/je060136y) are described below.

“And” between values parts separate entries of the source, which are not always exact repeats. Identical values can stand only once. ± gives the expanded uncertainty stated by the source.

The series is described as follows: activity coefficient (dimensionless); of the first substance listed, at infinite dilution; xn = mol fraction of the nth substance listed. As to conditions: Liquid, x1 = 0.
Setting [1] is: 333.15 K, Rayleigh distillation method.
Where [2] appears, read: 343.15 K, Rayleigh distillation method.
Setting [3] is: 353.15 K, Rayleigh distillation method.

In the case of `O=[N+]([O-])c1ccccc1` [nitrobenzene] + O, the activity coefficient under setting [1] was 2450 and 2320; the activity coefficient under setting [2] amounted to 2150 ± 220; the activity coefficient under setting [3] is 1640 and 1660; the activity coefficient (372.85 K, ciculation still method) came to 1320 ± 130.
Consider `NC1CCCCC1` [cyclohexylamine] + O, for which the activity coefficient reads like this: (298.15 K, headspace analysis) 19 ± 2; (313.15 K, headspace analysis) 29.1 ± 2.9; under setting [1], 36.7 ± 3.7; under setting [2], 44.8 ± 4.5; under setting [3], 51.2 ± 5.1; (372.65 K, circulation still method) 64.5 ± 6.5. Where the note is “372.82 K, circulation still method”, the activity coefficient was 53.5 and 64.6.
For the compound `Nc1ccccc1` [aniline] + O, the activity coefficient reads like this: (298.15 K, headspace analysis) 145 ± 15; under setting [1], 130 ± 13; under setting [2], 121 and 119; under setting [3], 111 ± 11; (372.47 K, ciculation still method) 92.7 ± 9.3.
